9 compounds from PubChem BioAssay (NCI) can be followed below.

Test systems include CCRF-CEM leukemia; HCT-116 colon; K-562 leukemia; MALME-3M melanoma; NCI-H23 lung; NCI/ADR-RES ovarian; PC-3 prostate; TK-10 renal; UACC-257 melanoma; RPMI-8226 leukemia.
Holding throughout (test): growth of human tumour cells (NCI), 48 h

Each structure is given as a SMILES string.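 All cell lines were grown in 96-well plates and treated with compound for 48 hours. GI50 marks 50% less growth. TGI: total growth inhibition.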

As for `CC1(C)CCC2(C(=O)O)C(O)CC3(C)C(=CCC4C5(C)CCC(OC6OCC(O)C(O)C6OC6OCC(O)C(O)C6OC6OCC(O)C(OC7OC(CO)C(O)C(O)C7O)C6O)C(C)(C)C5CCC43C)C2C1` (stereo not drawn), the TGI with CCRF-CEM leukemia was 71.9 µM; with HCT-116 colon, more than 100 µM; with K-562 leukemia it was 70.6 µM; in the assay with MALME-3M melanoma, 78.4 µM; in the assay with NCI-H23 lung, 49.7 µM; in the assay with NCI/ADR-RES ovarian, more than 100 µM. Also, the TGI in the assay with PC-3 prostate, in the assay with TK-10 renal and with UACC-257 melanoma was more than 100 µM in each case.
Take `Cn1ccc(S(=O)(=O)N2CCC[C@H](Nc3nccc(-c4c(-c5cccc(O)c5)nc5occn45)n3)C2)n1`: the GI50 was 4.47 µM in the assay on CCRF-CEM leukemia; 3.93 µM in the assay with HCT-116 colon; 13.9 µM in the assay with K-562 leukemia; 12 µM in the assay on NCI-H23 lung; more than 78.7 µM in the assay on NCI/ADR-RES ovarian; 19.4 µM in the assay with PC-3 prostate. In addition, the GI50 in the assay on RPMI-8226 leukemia is 14.9 µM; in the assay with TK-10 renal, 14.3 µM; in the assay with UACC-257 melanoma it was 0.224 µM. The TGI in the assay on CCRF-CEM leukemia is more than 100 µM; in the assay with HCT-116 colon, 32.4 µM; with K-562 leukemia, more than 100 µM; with NCI-H23 lung it was 41.8 µM; in the assay with NCI/ADR-RES ovarian, more than 100 µM; with PC-3 prostate it was more than 100 µM. Besides, the TGI in the assay on RPMI-8226 leukemia is 46.4 µM; in the assay with TK-10 renal, 60.2 µM; in the assay on UACC-257 melanoma it was 90.7 µM.
`CC(=O)CCC[C@@H](C)[C@@H]1O[C@H]([C@@]2(C)CCC(=O)O2)CC2[C@H]1OC(=O)C21CC1` (stereo partly drawn): the GI50 with CCRF-CEM leukemia was more than 100 µM; with HCT-116 colon, more than 100 µM; with K-562 leukemia, more than 100 µM; in the assay on NCI-H23 lung it was 15.3 µM; with NCI/ADR-RES ovarian, 71.3 µM; with PC-3 prostate it was 52.5 µM. The GI50 in the assay on RPMI-8226 leukemia was more than 100 µM; in the assay with UACC-257 melanoma, 50.7 µM. Besides, the TGI in the assay on CCRF-CEM leukemia was more than 100 µM; with HCT-116 colon, more than 100 µM; in the assay on K-562 leukemia, more than 100 µM; with NCI-H23 lung, 59.6 µM; with NCI/ADR-RES ovarian, more than 100 µM; in the assay on PC-3 prostate, more than 100 µM. Further, the TGI in the assay on RPMI-8226 leukemia and with UACC-257 melanoma was more than 100 µM each time.
In the case of `CCCCNC(=O)CC1=C(C)/C(=C/c2[nH]c(-c3ccc[nH]3)cc2OC)N=C1C`, the GI50 is 1.71 µM with CCRF-CEM leukemia; 2.28 µM in the assay on MALME-3M melanoma; 3.03 µM in the assay with NCI-H23 lung; 3.02 µM in the assay on NCI/ADR-RES ovarian; 2.36 µM with PC-3 prostate; 1.95 µM with RPMI-8226 leukemia. The GI50 with TK-10 renal was 2.83 µM; in the assay on UACC-257 melanoma, 2.26 µM. Besides, the TGI in the assay on CCRF-CEM leukemia was found to be 8.88 µM; with MALME-3M melanoma it was 5.43 µM; in the assay on NCI-H23 lung, 21 µM; in the assay with NCI/ADR-RES ovarian, 9.89 µM; in the assay with PC-3 prostate, 14.5 µM; in the assay with RPMI-8226 leukemia, 4.43 µM. The TGI stood at 8.8 µM in the assay with TK-10 renal and 4.54 µM in the assay on UACC-257 melanoma.
For `N#C/C(=C\c1ccc(O)c(O)c1)C(=O)NCc1cccc(C(F)(F)F)c1`, the GI50 with HCT-116 colon is 3.79 µM; in the assay on K-562 leukemia, 21.3 µM; in the assay on MALME-3M melanoma, 2.03 µM; with NCI-H23 lung, 12.2 µM; with NCI/ADR-RES ovarian, 10.1 µM; in the assay on PC-3 prostate, 19.7 µM. The GI50 in the assay with RPMI-8226 leukemia was 10.2 µM; with TK-10 renal, 1.31 µM; with UACC-257 melanoma, 12.2 µM. The TGI is 17.4 µM in the assay with HCT-116 colon; more than 100 µM in the assay on K-562 leukemia; 25.2 µM in the assay with MALME-3M melanoma; 31.5 µM with NCI-H23 lung; 34.6 µM in the assay on NCI/ADR-RES ovarian; more than 100 µM in the assay on PC-3 prostate. Further, the TGI in the assay on RPMI-8226 leukemia was more than 100 µM; in the assay on TK-10 renal it was 6.43 µM; in the assay with UACC-257 melanoma, 52.5 µM.
Consider `COc1cc(C2C=C(C)N=C3SC=C(C)N32)cc(OC)c1OC` (stereo not drawn), for which the GI50 was 0.312 µM with CCRF-CEM leukemia; 0.171 µM with HCT-116 colon; 1.77 µM in the assay on NCI-H23 lung; 0.454 µM with NCI/ADR-RES ovarian; 1.56 µM with PC-3 prostate; 0.385 µM in the assay on RPMI-8226 leukemia. For the same compound, the GI50 in the assay with TK-10 renal is 2.22 µM; in the assay on UACC-257 melanoma it was 1.77 µM. Further, the TGI is more than 100 µM in the assay on CCRF-CEM leukemia; 0.336 µM with HCT-116 colon; 5.41 µM with NCI-H23 lung; more than 100 µM in the assay on NCI/ADR-RES ovarian; 5.88 µM in the assay with PC-3 prostate; 2.57 µM in the assay on RPMI-8226 leukemia. The TGI in the assay on TK-10 renal was found to be 5.61 µM; in the assay with UACC-257 melanoma, 4.89 µM.
On to `CCN(CC)Cc1cc(Nc2ccnc3ccc(OC)cc23)ccc1O`, for which the GI50 with HCT-116 colon was 2.62 µM; in the assay on MALME-3M melanoma, 3.85 µM; in the assay on NCI-H23 lung, 7.46 µM; in the assay with NCI/ADR-RES ovarian, 4.87 µM; with PC-3 prostate it was 4.49 µM; in the assay on RPMI-8226 leukemia, 3.97 µM. Also, in the assay on TK-10 renal, the GI50 is 3.1 µM. In addition, the TGI with HCT-116 colon was 15 µM; in the assay with MALME-3M melanoma, 15.7 µM; in the assay on NCI-H23 lung, 26.5 µM; with NCI/ADR-RES ovarian, 28.8 µM; with PC-3 prostate, 31.6 µM; in the assay with RPMI-8226 leukemia, 15.1 µM. The TGI in the assay with TK-10 renal was determined as 8.43 µM.
In the case of `COc1cc(C(=O)/C=C/c2cccnc2Nc2ccc(Cl)cc2)cc(OC)c1OC`, the GI50 in the assay with CCRF-CEM leukemia is 0.369 µM; in the assay with HCT-116 colon, 0.568 µM; in the assay with MALME-3M melanoma, 1.91 µM; with NCI-H23 lung, 1.58 µM; with NCI/ADR-RES ovarian it was 1.64 µM; in the assay on PC-3 prostate it was 1.44 µM. In addition, the GI50 with RPMI-8226 leukemia was 0.655 µM; in the assay with TK-10 renal, 1.87 µM; with UACC-257 melanoma, 1.5 µM. Besides, the TGI turned out to be 4.87 µM in the assay on CCRF-CEM leukemia; 1.84 µM with HCT-116 colon; 3.65 µM with MALME-3M melanoma; 3.24 µM in the assay with NCI-H23 lung; 4.4 µM in the assay on NCI/ADR-RES ovarian; 3.33 µM with PC-3 prostate. The TGI in the assay with RPMI-8226 leukemia is 5.01 µM; in the assay on TK-10 renal it was 3.35 µM; with UACC-257 melanoma, 2.92 µM.
For `Cc1ncnc2c1ccn2[C@@H]1C[C@H](Oc2cc(C(F)F)c(F)c3c2CNCC3)[C@@H](O)[C@H]1O`, the GI50 in the assay with CCRF-CEM leukemia, in the assay with HCT-116 colon, in the assay with K-562 leukemia, in the assay on MALME-3M melanoma, in the assay with NCI/ADR-RES ovarian and in the assay on PC-3 prostate was more than 100 µM in each case. Further, the GI50 in the assay with RPMI-8226 leukemia, in the assay on TK-10 renal and in the assay with UACC-257 melanoma was more than 100 µM in each case. For the same compound, the TGI in the assay on CCRF-CEM leukemia, in the assay on HCT-116 colon, with K-562 leukemia, in the assay on MALME-3M melanoma, with NCI/ADR-RES ovarian and with PC-3 prostate was more than 100 µM each time. The TGI with RPMI-8226 leukemia, with TK-10 renal and in the assay with UACC-257 melanoma was more than 100 µM in each case.
